Data set [1] deals with Sphingosine 1-phosphate receptor 1 (Homo sapiens, UniProt P21453). Put plainly: […] of [35S]GTPgammaS from human S1P1 receptor expressed in CHO cells. In kind it is functional, cell-based. For orientation: Displacement assays read how much labelled ligand stays bound in the presence of the test substance.
A further data set concerns Mus musculus. Put plainly: Effect on peripheral lymphocyte lowering in orally dosed mouse. In kind it is functional.
The target of data set [2] is Sphingosine 1-phosphate receptor 2 (Homo sapiens, UniProt O95136). Put plainly: Displacement of [33P]S1P from human S1P2 receptor expressed in CHO cells. In kind it is cell-based.
Sphingosine 1-phosphate receptor 2, sequence (O95136 whole entry): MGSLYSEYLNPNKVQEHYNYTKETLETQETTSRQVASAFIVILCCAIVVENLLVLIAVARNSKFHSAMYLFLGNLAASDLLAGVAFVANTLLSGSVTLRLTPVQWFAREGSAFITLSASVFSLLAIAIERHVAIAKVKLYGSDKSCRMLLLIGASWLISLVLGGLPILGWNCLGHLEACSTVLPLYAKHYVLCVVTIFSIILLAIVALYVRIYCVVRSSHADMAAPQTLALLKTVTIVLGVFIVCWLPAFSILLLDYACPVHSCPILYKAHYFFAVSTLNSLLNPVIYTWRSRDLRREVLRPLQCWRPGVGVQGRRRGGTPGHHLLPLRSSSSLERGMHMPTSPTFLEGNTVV
Data set [3] has as its target T1, Sphingosine 1-phosphate receptor 4 (Homo sapiens, UniProt O95977).
T1 sequence (O95977 whole entry): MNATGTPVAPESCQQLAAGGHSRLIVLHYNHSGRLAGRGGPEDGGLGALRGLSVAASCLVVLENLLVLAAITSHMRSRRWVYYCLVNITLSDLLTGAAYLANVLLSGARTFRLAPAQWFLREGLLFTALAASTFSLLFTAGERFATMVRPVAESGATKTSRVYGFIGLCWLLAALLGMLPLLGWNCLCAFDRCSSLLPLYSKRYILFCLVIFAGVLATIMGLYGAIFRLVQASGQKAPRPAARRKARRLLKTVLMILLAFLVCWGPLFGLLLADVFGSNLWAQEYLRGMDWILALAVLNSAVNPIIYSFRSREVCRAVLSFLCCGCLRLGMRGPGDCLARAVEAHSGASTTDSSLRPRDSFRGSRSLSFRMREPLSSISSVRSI
Put plainly: Displacement of [33P]S1P from human S1P4 receptor expressed in CHO cells. In kind it is cell-based.

Data set [4] addresses Sphingosine 1-phosphate receptor 3 (Homo sapiens, UniProt Q99500). Put plainly: […] of [35S]GTP-gamma-S from human S1P3 receptor expressed in CHO cells. In kind it is functional, cell-based.
Data set [5] concerns the target Sphingosine 1-phosphate receptor 5 (Homo sapiens, UniProt Q9H228). Put plainly: […] of [35S]GTP-gamma-S from human S1P5 receptor expressed in CHO cells. In kind it is functional, cell-based.
A short description of data set [6]: Plasma clearance in Sprague-Dawley rat at 1.0 mg/kg, iv or 2.0 mg/kg, po. In kind it is ADME, organism-based.
Data set [7] is described as follows: (§1) Volume of distribution at steady state in Sprague-Dawley rat at 1.0 mg/kg, iv or 2.0 mg/kg, po. In kind it is ADME, organism-based. As to conditions: Sprague-Dawley, in vivo, read-out: Vdss.
The nature of data set [8]: (§2) Half life in Sprague-Dawley rat at 1.0 mg/kg, iv or 2.0 mg/kg, po. In kind it is ADME, organism-based. As to conditions: Sprague-Dawley, in vivo.
Data set [9] can be described thus: (§3) Bioavailability in Sprague-Dawley rat at 2.0 mg/kg, po. As to conditions: Sprague-Dawley, in vivo. In kind it is ADME, organism-based.
Data set [10] deals with Rattus norvegicus. The description is as §1. In kind it is ADME, organism-based. The conditions noted are these: in vivo.
For data set [11], the system named is Rattus norvegicus. The data set is described as §2. In kind it is ADME, organism-based. The conditions noted are these: in vivo.
Data set [12] has as its system Rattus norvegicus. The data set is described as §3. In kind it is ADME, organism-based. The conditions noted are these: in vivo.
Where [13] appears, read: Mus musculus, po, read-out: ED50.

Values joined by “and” are separate entries in the source; they are usually repeats but may differ in a detail not shown here. Equal values may be shown once.

This note sets out measurements from ChEMBL document CHEMBL1138410, “SAR studies of 3-arylpropionic acids as potent and selective agonists of sphingosine-1-phosphate receptor-1 (S1P1) with enhanced pharmacokinetic properties” (Bioorg Med Chem Lett, 2007).

Usually EC50 stands for the midpoint of the concentration-response curve. High values mean a need for much substance, low ones an effect from little substance. A word on the ED50: it is the dose at which the effect has come halfway, by size or by number of responders. By IC50 is commonly meant the concentration needed to halve the response being measured. Lower therefore signals higher potency. A word on the half-life: it is how long it takes for the measured level to halve. Higher therefore signals slow decline. By bioavailability is commonly meant dose-corrected exposure relative to a reference, in per cent. A higher bioavailability goes with good availability.

Sphingosine 1-phosphate receptor 5, sequence (Q9H228 whole entry): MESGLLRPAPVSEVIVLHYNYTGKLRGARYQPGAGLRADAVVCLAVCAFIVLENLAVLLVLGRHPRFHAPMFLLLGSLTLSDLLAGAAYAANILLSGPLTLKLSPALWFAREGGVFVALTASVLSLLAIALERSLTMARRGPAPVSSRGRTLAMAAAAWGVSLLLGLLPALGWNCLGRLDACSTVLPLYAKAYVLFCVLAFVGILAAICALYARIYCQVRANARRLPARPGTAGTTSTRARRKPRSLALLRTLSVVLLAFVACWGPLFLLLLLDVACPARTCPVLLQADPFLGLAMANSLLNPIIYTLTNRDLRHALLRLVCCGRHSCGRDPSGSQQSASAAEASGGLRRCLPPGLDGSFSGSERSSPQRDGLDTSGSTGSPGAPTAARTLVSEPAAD
Sphingosine 1-phosphate receptor 3, sequence (Q99500 whole entry): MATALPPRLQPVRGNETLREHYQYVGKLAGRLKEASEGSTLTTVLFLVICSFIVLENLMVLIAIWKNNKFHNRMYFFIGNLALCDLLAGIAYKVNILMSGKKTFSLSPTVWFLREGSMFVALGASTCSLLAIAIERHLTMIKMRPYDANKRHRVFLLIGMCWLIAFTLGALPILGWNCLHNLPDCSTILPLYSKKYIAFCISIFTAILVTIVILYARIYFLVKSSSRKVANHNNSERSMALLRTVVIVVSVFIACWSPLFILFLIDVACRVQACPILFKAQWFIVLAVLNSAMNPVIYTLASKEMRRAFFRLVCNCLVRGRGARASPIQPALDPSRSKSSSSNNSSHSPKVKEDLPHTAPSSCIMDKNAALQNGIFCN
Sphingosine 1-phosphate receptor 1, sequence (P21453 whole entry): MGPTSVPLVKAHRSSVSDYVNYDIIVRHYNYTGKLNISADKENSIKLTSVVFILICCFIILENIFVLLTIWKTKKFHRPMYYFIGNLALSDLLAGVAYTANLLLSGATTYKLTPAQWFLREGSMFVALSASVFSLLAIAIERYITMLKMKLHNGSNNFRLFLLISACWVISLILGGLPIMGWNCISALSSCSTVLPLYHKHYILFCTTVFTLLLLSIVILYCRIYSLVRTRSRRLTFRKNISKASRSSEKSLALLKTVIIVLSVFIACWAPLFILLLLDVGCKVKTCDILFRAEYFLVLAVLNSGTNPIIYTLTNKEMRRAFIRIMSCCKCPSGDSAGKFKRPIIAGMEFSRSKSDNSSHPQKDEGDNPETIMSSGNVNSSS

Molecule `Cc1cc(CCC(=O)O)ccc1-c1noc(-c2ccc(OC(C)C)c(C(F)(F)F)c2)n1` displayed a 50% effective concentration (EC50) in [1] of 0.08 nM. In the data set with Mus musculus (setting [13]), the ED50 stood at 0.3 mg/kg. For the same molecule, the IC50 in data set [2] and in data set [3] was above 10000 nM in each case.
The molecule `Cc1cc(CCC(=O)O)ccc1-c1noc(-c2ccc(OC(C)C)c(C#N)c2)n1` returned an EC50 in data set [1] of 0.08 nM. Moreover, in the data set with Mus musculus (setting [13]), the ED50 amounted to 0.1 mg/kg. In addition, the half-maximal inhibitory concentration (IC50) in [2] and in data set [3] was above 10000 nM in each case.
Consider `Cc1cc(CC(C)C(=O)O)ccc1-c1noc(-c2ccc(OC(C)C)c(C(F)(F)F)c2)n1` (stereo not drawn), for which the EC50 in data set [1] came out at 0.3 nM; in data set [4], 400 nM; in [5] it was 9.9 nM. Further, the median effective dose (ED50) with Mus musculus (setting [13]) was 0.1 mg/kg. The molecule further showed a clearance in data set [6] of 7 mL/min/kg. Besides, in data set [7], the Vd came to 1.5 L/kg. The molecule also gave a half-life in [8] of 1.7 h. Moreover, in data set [9], the bioavailability was 82%. Further, the IC50 in [2] and in [3] was above 10000 nM each time.
For the molecule `Cc1nc(CCC(=O)O)ccc1-c1noc(-c2ccc(OC(C)C)c(C#N)c2)n1`, the concentration giving a half-maximal response (EC50) amounted to 0.44 nM in data set [1], 2760 nM in data set [4] and 28.6 nM in [5]. In addition, the ED50 with Mus musculus (setting [13]) was found to be 0.2 mg/kg. The molecule further showed a clearance in data set [6] of 1.2 mL/min/kg. Moreover, the Vd in data set [7] stood at 0.3 L/kg. In addition, in [8], the half-life was 2.4 h. Also, the bioavailability in data set [9] is 93%. Also, the IC50 in [2] and in data set [3] was above 10000 nM each time.
For the molecule `Cc1cc([C@H]2C[C@H]2C(=O)O)ccc1-c1noc(-c2ccc(OC(C)C)c(C#N)c2)n1`, the values for the 50% effective concentration (EC50) in [1], in data set [4] and in data set [5] were 0.8 nM, above 1000 nM and 37.7 nM, respectively. Also, the median effective dose (ED50) with Mus musculus (setting [13]) was 0.7 mg/kg. Also, the clearance in [6] was found to be 1.2 mL/min/kg. Also, in [7], the Vd stood at 0.7 L/kg. The half-life in data set [8] is 7.4 h. In [9], this molecule came in with a bioavailability of 89%. Further, the half-maximal inhibitory concentration (IC50) in data set [2] and in [3] was above 10000 nM each time.
As to `Cc1cc([C@@H]2C[C@H]2C(=O)O)ccc1-c1noc(-c2ccc(OC(C)C)c(C#N)c2)n1`, the EC50 was 0.93 nM and 0.31 nM in data set [1]; 2660 nM and 2600 nM and > 10000 nM in data set [4]. In addition, the ED50 amounted to 0.2 mg/kg in the data set with Mus musculus and 0.3 mg/kg in the data set on Mus musculus (setting [13]). For the same molecule, the Vdss with Rattus norvegicus [10] is 1 L/kg and 0.4 L/kg. The half-life in data set [8] is 4.9 h. For the same molecule, the t1/2 in the data set on Rattus norvegicus [11] was found to be 5.9 h. The molecule further had a bioavailability in data set [9] of 84%. Also, in the data set on Rattus norvegicus [12], the F is recorded as 90%. Besides, the IC50 in data set [2] and in [3] was above 10000 nM each time.
Consider `Cc1cc(C(C)CC(=O)O)ccc1-c1noc(-c2ccc(OC(C)C)c(C(F)(F)F)c2)n1` (stereo not drawn), for which the results for the 50% effective concentration (EC50) in data set [1], in data set [4] and in data set [5] were 0.12 nM, 184 nM and 3.9 nM, respectively. The ED50 with Mus musculus (setting [13]) turned out to be 0.1 mg/kg. In data set [6], this molecule showed a clearance of 2.9 mL/min/kg. The Vd in data set [7] stood at 0.6 L/kg. The half-life in data set [8] was 3.1 h. In addition, in data set [9], the bioavailability was determined as 100%. The concentration for half-maximal inhibition (IC50) in data set [2] and in [3] was above 10000 nM each time.
As to `Cc1cc([C@@H]2C[C@H]2C(=O)O)ccc1-c1noc(-c2ccc(OC(C)C)c(C(F)(F)F)c2)n1`, the EC50 in data set [4] came out at 123 nM; in data set [5], 5.1 nM. The 50% effective dose (ED50) in the data set on Mus musculus (setting [13]) was 0.2 mg/kg. For the same molecule, in data set [6], the clearance came out at 2.4 mL/min/kg. In addition, the Vd in data set [7] turned out to be 1.1 L/kg. This molecule also gave a half-life in data set [8] of 6.3 h. This molecule gave a bioavailability in [9] of 88%. The IC50 in data set [2] and in [3] was above 10000 nM each time.
